Measurements reported in patent publication US20260285850A1, “SUBSTITUTED OXAZOLIDINONES AND IMIDAZOLINONES AS HERBICIDES” (FMC CORPORATION, priority 2023, published 2026).

Experiments:
Type in all cases: in vivo
[1] = test system: ducksalad (Heteranthera limosa); assay: Test B flooded paddy test, visual plant response rating 0-100; conditions: 250 g ai/ha, Flood, applied to paddy water, evaluated after 13 days
How it was run: (§1)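 Each species was raised to two leaves before flooding to a 3 cm depth and dosing the water with compound. Injury was assessed by eye after 13 days under greenhouse conditions.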

[2] = test system: sedge, umbrella (small-flower umbrella sedge, Cyperus difformis); assay: as above; conditions: 250 g ai/ha, Flood, applied to paddy water, evaluated after 13 days
How it was run: as §1

[3] = test system: barnyardgrass (Echinochloa crusgalli); assay: as above; conditions: 250 g ai/ha, Flood, applied to paddy water, evaluated after 13 days
How it was run: as §1

[4] = test system: rice (Oryza sativa); assay: as above; conditions: 250 g ai/ha, Flood, applied to paddy water, evaluated after 13 days
How it was run: as §1

[5] = test system: green foxtail (Setaria viridis); assay: Test A preemergence soil spray, visual injury rating 0-100; conditions: 10 days
How it was run: (§2)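 Preemergence directed soil spray or postemergence spray (2-10 cm, 1-2 leaf); loam/sand mix; compound in non-phytotoxic solvent + surfactant. Greenhouse, 10 d. Visual injury vs untreated, 0 = none, 100 = complete control.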

[6] = test system: corn (Zea mays); assay: as above; conditions: 10 days
How it was run: as §2

[7] = test system: soybean (Glycine max); assay: as above; conditions: 10 days
How it was run: as §2

[8] = test system: kochia (Bassia scoparia); assay: as above; conditions: 10 days
How it was run: as §2

[9] = test system: oat, wild (wild oat, Avena fatua); assay: as above; conditions: 10 days
How it was run: as §2

[10] = test system: barnyardgrass (Echinochloa crus-galli); assay: as above; conditions: 10 days
How it was run: as §2

[11] = test system: ryegrass, Italian (italian ryegrass, Lolium multiflorum); assay: as above; conditions: 10 days
How it was run: as §2

[12] = test system: wheat (Triticum aestivum); assay: as above; conditions: 10 days
How it was run: as §2

[13] = test system: blackgrass (Alopecurus myosuroides); assay: as above; conditions: 10 days
How it was run: as §2

[14] = test system: ragweed (common ragweed, Ambrosia artemisiifolia); assay: as above; conditions: 10 days
How it was run: as §2

[15] = test system: green foxtail (Setaria viridis); assay: Test A postemergence application, visual injury rating 0-100
How it was run: as §2

[16] = test system: galium (catchweed bedstraw, Galium aparine); assay: as above
How it was run: as §2

[17] = test system: corn (Zea mays); assay: as above
How it was run: as §2

[18] = test system: soybean (Glycine max); assay: as above
How it was run: as §2

[19] = test system: kochia (Bassia scoparia); assay: as above
How it was run: as §2

[20] = test system: oat, wild (wild oat, Avena fatua); assay: as above
How it was run: as §2

[21] = test system: horseweed (Erigeron canadensis); assay: as above
How it was run: as §2

[22] = test system: barnyardgrass (Echinochloa crus-galli); assay: as above
How it was run: as §2

[23] = test system: ryegrass, Italian (italian ryegrass, Lolium multiflorum); assay: as above
How it was run: as §2

[24] = test system: wheat (Triticum aestivum); assay: as above
How it was run: as §2

[25] = test system: blackgrass (Alopecurus myosuroides); assay: as above
How it was run: as §2

[26] = test system: ragweed (common ragweed, Ambrosia artemisiifolia); assay: as above
How it was run: as §2

[27] = test system: palmer (palmer amaranth, palmer pigweed, Amaranthus palmeri); assay: as above
How it was run: as §2

[28] = 62 g ai/ha, 0 = no effect, 100 = complete control
[29] = 62 g ai/ha, postemergence, 10 days, 0 = no effect, 100 = complete control
[30] = Postemergence, 16 g ai/ha, greenhouse 10 days, 0 no effect, 100 complete control

CC1(C(=O)NC2CC=C(C(=O)OCC(F)(F)F)C2)CN(c2cc(F)cc(Cl)c2)C(=O)O1 (centres unmarked) [Compound 141]
Plant response rating, Ducksalad (0 to 100 scale, 0 is no effect and 100 is complete control) [1]: 65
Plant response rating, Sedge, Umbrella (0 to 100 scale, 0 is no effect and 100 is complete control) [2]: 85
Plant response rating, Barnyardgrass (0 to 100 scale, 0 is no effect and 100 is complete control) [3]: 90
Plant response rating, Rice (0 to 100 scale, 0 is no effect and 100 is complete control) [4]: 50
Foxtail, Green plant response rating ([5]; 16 g ai/ha, 0 to 100 scale): 20
Foxtail, Green plant response rating (0-100) [5, 28]: 90
Corn plant response rating ([6]; 16 g ai/ha, 0 to 100 scale): 10
Corn plant response rating (0-100) [6, 28]: 70
Soybean plant response rating ([7]; 16 g ai/ha, 0 to 100 scale): 0
Soybean plant response rating (0-100) [7, 28]: 70
Kochia plant response rating ([8]; 16 g ai/ha, 0 to 100 scale): 0
Kochia plant response rating (0-100) [8, 28]: 80
Oat, Wild plant response rating ([9]; 16 g ai/ha, 0 to 100 scale): 0
Oat, Wild plant response rating (0-100) [9, 28]: 40
Barnyardgrass plant response rating ([10]; 16 g ai/ha, 0 to 100 scale): 0
Barnyardgrass plant response rating (0-100) [10, 28]: 70
Ryegrass, Italian plant response rating ([11]; 16 g ai/ha, 0 to 100 scale): 50
Ryegrass, Italian plant response rating (0-100) [11, 28]: 90
Wheat plant response rating ([12]; 16 g ai/ha, 0 to 100 scale): 80
Wheat plant response rating (0-100) [12, 28]: 90
Blackgrass plant response rating ([13]; 16 g ai/ha, 0 to 100 scale): 0
Blackgrass plant response rating (0-100) [13, 28]: 80
Ragweed plant response rating ([14]; 16 g ai/ha, 0 to 100 scale): 0
Ragweed plant response rating (0-100) [14, 28]: 0
Foxtail, Green plant response rating (0-100) [15, 29]: 90
Foxtail, Green plant response rating (0 to 100 scale) [15, 30]: 90
Galium plant response rating (0-100) [16, 29]: 80
Galium plant response rating (0 to 100 scale) [16, 30]: 80
Corn plant response rating (0-100) [17, 29]: 100
Corn plant response rating (0 to 100 scale) [17, 30]: 100
Soybean plant response rating (0-100) [18, 29]: 70
Soybean plant response rating (0 to 100 scale) [18, 30]: 70
Kochia plant response rating (0-100) [19, 29]: 90
Kochia plant response rating (0 to 100 scale) [19, 30]: 70
Oat, Wild plant response rating (0-100) [20, 29]: 80
Oat, Wild plant response rating (0 to 100 scale) [20, 30]: 20
Horseweed plant response rating (0-100) [21, 29]: 80
Horseweed plant response rating (0 to 100 scale) [21, 30]: 60
Barnyardgrass plant response rating (0-100) [22, 29]: 100
Barnyardgrass plant response rating (0 to 100 scale) [22, 30]: 100
Ryegrass, Italian plant response rating (0-100) [23, 29]: 80
Ryegrass, Italian plant response rating (0 to 100 scale) [23, 30]: 20
Wheat plant response rating (0-100) [24, 29]: 90
Wheat plant response rating (0 to 100 scale) [24, 30]: 90
Blackgrass plant response rating (0-100) [25, 29]: 90
Blackgrass plant response rating (0 to 100 scale) [25, 30]: 90
Ragweed plant response rating (0-100) [26, 29]: 60
Ragweed plant response rating (0 to 100 scale) [26, 30]: 30
Pigweed, Palmer plant response rating (0-100) [27, 29]: 90
Pigweed, Palmer plant response rating (0 to 100 scale) [27, 30]: 70
